Data set [1] deals with THP-1 monocytes.
In data set [2] the test system is IL-1β secretion produced by PMA-differentiated macrophages. Type of data set: cell-based, human.
Data set [3] deals with TNF-α secretion produced by PMA-differentiated macrophages. Type of data set: cell-based, human.
For data set [4] the following is noted: thiol group; cited from earlier work.

Broadly, the pKa is the pH at which an ionisable group is half protonated.

For the compound `CC1=C[C@H]2O[C@@H]3[C@H](O)C[C@](C)([C@@]2(CO)[C@H](O)C1=O)[C@]31CO1` [DON, deoxynivalenol], the “effect on proliferation of THP-1 monocytes” value in data set [1] is on record as “decreased the proliferation”. Also, in data set [2], the IL-1β response entry is reported as “did not show an IL-1β response” and the “release of IL-1β” value is recorded as “increased the release of IL-1β”. Besides, the TNF-α secretion entry in data set [3] was “increase in TNF-α”.
For the compound `C=C1[C@@H]2O[C@@H]3C=C(C)C(=O)[C@@H](O)[C@]3(CO)[C@@]1(C)C[C@H]2O` [deepoxy-DON], the “effect on proliferation of THP-1 monocytes” value in data set [1] is on record as “did not”. Also, in data set [2], the “release of IL-1β” value is given as “did not”.
As to `OCCS` [mercaptoethanol, 2-mercaptoethanol], the pKa in data set [4] is reported as ~9.6.

These data come from patent US20170071235A1 (priority 2014, published 2017).
